Key:
direct sown rice [1] = assay: Herbicidal effect test by foliage treatment; assay type: in vivo, Oryza sativa; conditions: 1.6 g/a; foliage treatment after growth of 14 days; 3 weeks after treatment
Method in brief: (§1)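 Greenhouse-grown plants (25–30 °C) sprayed on foliage 14 days after sowing with water-diluted wettable powder at set formulation rates. Herbicidal effect scored visually 3 weeks after treatment on a graded scale.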

direct sown rice [2] = assay: Herbicidal effect test by soil treatment; assay type: in vivo, Oryza sativa; conditions: 1.6 g/a, 3 weeks after treatment
Method in brief: (§2)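 Seeds were sown in sterilized diluvial soil under about 1.5 cm cover, then the soil surface was sprayed uniformly with a water-diluted wettable powder at a predetermined formulation amount. Herbicidal effect was scored per species 3 weeks after treatment.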

Echinochloa crus-galli [3] = assay: Herbicidal effect test in submerged condition by treatment during weed-growth stage (1); assay type: in vivo; conditions: 0.64 g/a, treated at 1st to 2nd leaf stage, 3 weeks after treatment
Method in brief: (§3)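 Paddy-soil pots flooded to 4 cm water depth were sown and grown in a greenhouse at 25 to 30° C until weeds reached 1st to 2nd leaf stage. A wettable powder diluted in water to a predetermined formulation amount was applied to the water surface. Herbicidal effect was scored 3 weeks after treatment against set criteria.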

Scirpus juncoides [4] = assay: as above; assay type: in vivo; conditions: 0.64 g/a, treated at 1st to 2nd leaf stage, 3 weeks after treatment
Method in brief: as §3

Monochoria vaginalis [5] = assay: as above; assay type: in vivo; conditions: 0.64 g/a, treated at 1st to 2nd leaf stage, 3 weeks after treatment
Method in brief: as §3

Beta vulgaris (beet) [6] = assay: Herbicidal effect test by foliage treatment; assay type: in vivo; conditions: 1.6 g/a; foliage treatment after growth of 14 days; 3 weeks after treatment
Method in brief: as §1

Echinochloa crus-galli [7] = assay: Herbicidal effect test by foliage treatment; assay type: in vivo; conditions: 1.6 g/a; foliage treatment after growth of 14 days; 3 weeks after treatment
Method in brief: as §1

Setaria viridis [8] = assay: Herbicidal effect test by foliage treatment; assay type: in vivo; conditions: 1.6 g/a; foliage treatment after growth of 14 days; 3 weeks after treatment
Method in brief: as §1

Polygonum blumei [9] = assay: Herbicidal effect test by foliage treatment; assay type: in vivo; conditions: 1.6 g/a; foliage treatment after growth of 14 days; 3 weeks after treatment
Method in brief: as §1

Amaranthus retroflexus [10] = assay: Herbicidal effect test by foliage treatment; assay type: in vivo; conditions: 1.6 g/a; foliage treatment after growth of 14 days; 3 weeks after treatment
Method in brief: as §1

Chenopodium album [11] = assay: Herbicidal effect test by foliage treatment; assay type: in vivo; conditions: 1.6 g/a; foliage treatment after growth of 14 days; 3 weeks after treatment
Method in brief: as §1

Avena fatua [12] = assay: Herbicidal effect test by foliage treatment; assay type: in vivo; conditions: 1.6 g/a; foliage treatment after growth of 14 days; 3 weeks after treatment
Method in brief: as §1

Ambrosia elatior [13] = assay: Herbicidal effect test by foliage treatment; assay type: in vivo; conditions: 1.6 g/a; foliage treatment after growth of 14 days; 3 weeks after treatment
Method in brief: as §1

Black-grass [14] = assay: Herbicidal effect test by foliage treatment; assay type: in vivo; conditions: 1.6 g/a; foliage treatment after growth of 14 days; 3 weeks after treatment
Method in brief: as §1

Abutilon avicennae [15] = assay: Herbicidal effect test by foliage treatment; assay type: in vivo; conditions: 1.6 g/a; foliage treatment after growth of 14 days; 3 weeks after treatment
Method in brief: as §1

Stellaria media [16] = assay: Herbicidal effect test by foliage treatment; assay type: in vivo; conditions: 1.6 g/a; foliage treatment after growth of 14 days; 3 weeks after treatment
Method in brief: as §1

soybean (Glycine max) [17] = assay: Herbicidal effect test by foliage treatment; assay type: in vivo; conditions: 1.6 g/a; foliage treatment after growth of 14 days; 3 weeks after treatment
Method in brief: as §1

corn (Zea mays) [18] = assay: Herbicidal effect test by foliage treatment; assay type: in vivo; conditions: 1.6 g/a; foliage treatment after growth of 14 days; 3 weeks after treatment
Method in brief: as §1

[19] = tested on: Triticum aestivum (wheat); assay: Herbicidal effect test by foliage treatment; assay type: in vivo; conditions: 1.6 g/a; foliage treatment after growth of 14 days; 3 weeks after treatment
Method in brief: as §1

Digitaria adscendes [20] = assay: Herbicidal effect test by foliage treatment; assay type: in vivo; conditions: 1.6 g/a; foliage treatment after growth of 14 days; 3 weeks after treatment
Method in brief: as §1

Echinochloa crus-galli [21] = assay: Herbicidal effect test in submerged condition by treatment before weed-generation (1); assay type: in vivo; conditions: 0.64 g/a, water surface treated on day of sowing, 3 weeks after treatment
Method in brief: (§4)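 Alluvial soil flooded to 4 cm water depth; Echinochloa crus-galli, Scirpus juncoides and Monochoria vaginalis seeds sown, rice transplanted at 2.5-leaf stage. Wettable powder diluted in water applied to water surface on sowing day; greenhouse 25–30° C. Effect scored 0–5 by herbicidal rate after 3 weeks.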

Scirpus juncoides [22] = assay: as above; assay type: in vivo; conditions: 0.64 g/a, water surface treated on day of sowing, 3 weeks after treatment
Method in brief: as §4

Monochoria vaginalis [23] = assay: as above; assay type: in vivo; conditions: 0.64 g/a, water surface treated on day of sowing, 3 weeks after treatment
Method in brief: as §4

Beta vulgaris (beet) [24] = assay: Herbicidal effect test by soil treatment; assay type: in vivo; conditions: 1.6 g/a, 3 weeks after treatment
Method in brief: as §2

Echinochloa crus-galli [25] = assay: Herbicidal effect test by soil treatment; assay type: in vivo; conditions: 1.6 g/a, 3 weeks after treatment
Method in brief: as §2

Setaria viridis [26] = assay: Herbicidal effect test by soil treatment; assay type: in vivo; conditions: 1.6 g/a, 3 weeks after treatment
Method in brief: as §2

Polygonum blumei [27] = assay: Herbicidal effect test by soil treatment; assay type: in vivo; conditions: 1.6 g/a, 3 weeks after treatment
Method in brief: as §2

Amaranthus retroflexus [28] = assay: Herbicidal effect test by soil treatment; assay type: in vivo; conditions: 1.6 g/a, 3 weeks after treatment
Method in brief: as §2

Chenopodium album [29] = assay: Herbicidal effect test by soil treatment; assay type: in vivo; conditions: 1.6 g/a, 3 weeks after treatment
Method in brief: as §2

Avena fatua [30] = assay: Herbicidal effect test by soil treatment; assay type: in vivo; conditions: 1.6 g/a, 3 weeks after treatment
Method in brief: as §2

Ambrosia elatior [31] = assay: Herbicidal effect test by soil treatment; assay type: in vivo; conditions: 1.6 g/a, 3 weeks after treatment
Method in brief: as §2

Black-grass [32] = assay: Herbicidal effect test by soil treatment; assay type: in vivo; conditions: 1.6 g/a, 3 weeks after treatment
Method in brief: as §2

Abutilon avicennae [33] = assay: Herbicidal effect test by soil treatment; assay type: in vivo; conditions: 1.6 g/a, 3 weeks after treatment
Method in brief: as §2

Stellaria media [34] = assay: Herbicidal effect test by soil treatment; assay type: in vivo; conditions: 1.6 g/a, 3 weeks after treatment
Method in brief: as §2

soybean (Glycine max) [35] = assay: Herbicidal effect test by soil treatment; assay type: in vivo; conditions: 1.6 g/a, 3 weeks after treatment
Method in brief: as §2

corn (Zea mays) [36] = assay: Herbicidal effect test by soil treatment; assay type: in vivo; conditions: 1.6 g/a, 3 weeks after treatment
Method in brief: as §2

[37] = tested on: Triticum aestivum (wheat); assay: Herbicidal effect test by soil treatment; assay type: in vivo; conditions: 1.6 g/a, 3 weeks after treatment
Method in brief: as §2

Digitaria adscendes [38] = assay: Herbicidal effect test by soil treatment; assay type: in vivo; conditions: 1.6 g/a, 3 weeks after treatment
Method in brief: as §2

COc1cc(OC)nc(NC(=O)NS(=O)(=O)c2c(C3=NOCC(C)(CI)O3)c(C)nn2C)n1 (centres unmarked) [Compound 8, N-((4,6-dimethoxypyrimidin-2-yl)aminocarbonyl)-4-(5-iodomethyl-5-methyl-5H,6H-1,4,2-dioxadin-3-yl)-1,3-dimethylpyrazole-5-sulfonamide]
herbicidal effect, d: direct sown rice (direct sown rice [1]): 1 (Herbicidal rate 5% or more and less than 20%) | herbicidal effect, d: direct sown rice (direct sown rice [2]): 2 (Herbicidal rate 20% or more and less than 40%) | herbicidal effect, A: Echinochloa crus-galli (Echinochloa crus-galli [3]): 4 (Herbicidal rate 70% or more and less than 90%) | herbicidal effect, B: Scirpus juncoides (Scirpus juncoides [4]): 4 (Herbicidal rate 70% or more and less than 90%) | herbicidal effect, C: Monochoria vaginalis (Monochoria vaginalis [5]): 4 (Herbicidal rate 70% or more and less than 90%) | herbicidal effect, f: Beta vulgaris (beet) (Beta vulgaris (beet) [6]): 4 (Herbicidal rate 70% or more and less than 90%) | herbicidal effect, A: Echinochloa crus-galli (Echinochloa crus-galli [7]): 4 (Herbicidal rate 70% or more and less than 90%) | herbicidal effect, E: Setaria viridis (Setaria viridis [8]): 4 (Herbicidal rate 70% or more and less than 90%) | herbicidal effect, L: Polygonum blumei (Polygonum blumei [9]): 4 (Herbicidal rate 70% or more and less than 90%) | herbicidal effect, J: Amaranthus retroflexus (Amaranthus retroflexus [10]): 4 (Herbicidal rate 70% or more and less than 90%) | herbicidal effect, K: Chenopodium album (Chenopodium album [11]): 4 (Herbicidal rate 70% or more and less than 90%) | herbicidal effect, F: Avena fatua (Avena fatua [12]): 1 (Herbicidal rate 5% or more and less than 20%) | herbicidal effect, I: Ambrosia elatior (Ambrosia elatior [13]): 4 (Herbicidal rate 70% or more and less than 90%) | herbicidal effect, G: Black-grass (Black-grass [14]): 0 (Herbicidal rate 5% or less (little effect)) | herbicidal effect, H: Abutilon avicennae (Abutilon avicennae [15]): 5 (Herbicidal rate 90% or more (almost complete death)) | herbicidal effect, M: Stellaria media (Stellaria media [16]): 4 (Herbicidal rate 70% or more and less than 90%) | herbicidal effect, c: soybean (Glycine max) (soybean (Glycine max) [17]): 4 (Herbicidal rate 70% or more and less than 90%) | herbicidal effect, b: corn (Zea mays) (corn (Zea mays) [18]): 4 (Herbicidal rate 70% or more and less than 90%) | herbicidal effect, e: Triticum aestivum (wheat) [19]: 1 (Herbicidal rate 5% or more and less than 20%) | herbicidal effect, D: Digitaria adscendes (Digitaria adscendes [20]): 3 (Herbicidal rate 40% or more and less than 70%) | herbicidal effect, A: Echinochloa crus-galli (Echinochloa crus-galli [21]): 3 (Herbicidal rate 40% or more and less than 70%) | herbicidal effect, B: Scirpus juncoides (Scirpus juncoides [22]): 4 (Herbicidal rate 70% or more and less than 90%) | herbicidal effect, C: Monochoria vaginalis (Monochoria vaginalis [23]): 5 (Herbicidal rate 90% or more (almost complete death)) | herbicidal effect, f: Beta vulgaris (beet) (Beta vulgaris (beet) [24]): 2 (Herbicidal rate 20% or more and less than 40%) | herbicidal effect, A: Echinochloa crus-galli (Echinochloa crus-galli [25]): 1 (Herbicidal rate 5% or more and less than 20%) | herbicidal effect, E: Setaria viridis (Setaria viridis [26]): 0 (Herbicidal rate 5% or less (little effect)) | herbicidal effect, L: Polygonum blumei (Polygonum blumei [27]): 5 (Herbicidal rate 90% or more (almost complete death)) | herbicidal effect, J: Amaranthus retroflexus (Amaranthus retroflexus [28]): 5 (Herbicidal rate 90% or more (almost complete death)) | herbicidal effect, K: Chenopodium album (Chenopodium album [29]): 2 (Herbicidal rate 20% or more and less than 40%) | herbicidal effect, F: Avena fatua (Avena fatua [30]): 0 (Herbicidal rate 5% or less (little effect)) | herbicidal effect, I: Ambrosia elatior (Ambrosia elatior [31]): 5 (Herbicidal rate 90% or more (almost complete death)) | herbicidal effect, G: Black-grass (Black-grass [32]): 3 (Herbicidal rate 40% or more and less than 70%) | herbicidal effect, H: Abutilon avicennae (Abutilon avicennae [33]): 0 (Herbicidal rate 5% or less (little effect)) | herbicidal effect, M: Stellaria media (Stellaria media [34]): 4 (Herbicidal rate 70% or more and less than 90%) | herbicidal effect, c: soybean (Glycine max) (soybean (Glycine max) [35]): 0 (Herbicidal rate 5% or less (little effect)) | herbicidal effect, b: corn (Zea mays) (corn (Zea mays) [36]): 0 (Herbicidal rate 5% or less (little effect)) | herbicidal effect, e: Triticum aestivum (wheat) [37]: 1 (Herbicidal rate 5% or more and less than 20%) | herbicidal effect, D: Digitaria adscendes (Digitaria adscendes [38]): 3 (Herbicidal rate 40% or more and less than 70%)
